From publication PMC6271011, “Synthesis, Leishmanicidal and Cytotoxic Activity of Triclosan-Chalcone, Triclosan-Chromone and Triclosan-Coumarin Hybrids” (Molecules, 2014) come the findings set out here.

Series [1] deals with intracellular amastigotes of L. (V) panamensis. The series can be described thus: Leishmanicidal activity against intracellular amastigotes (GFP, flow cytometry, 72 h). The class given is cell-based, Leishmania (Viannia) panamensis. The conditions noted are these: for Leishmanicidal activity % Inhibition: intracellular amastigotes; for SI (Selectivity Index = LC50/EC50): LC50 U-937 / EC50 intracellular amastigotes. As to the method:
The leishmanicidal activity of compounds was evaluated on intracellular amastigotes of L. panamensis transfected with the green fluorescent protein gene (MHOM/CO/87/UA140pIR-GFP). Effect of each compound was determined according to the inhibition of the infection evidenced by both decrease of the infected cells and decrease of intracellular parasite load. Briefly, U-937 human cells at a concentration of 3 × 10^5 cells/mL in RPMI 1640 and 0.1 μg/mL of PMA (phorbol-12-myristate-13-acetate) were infected with promastigotes in stationary phase growth in a 15:1 parasites per cell ratio and incubated at 34 °C and 5% CO2 for 3 h. Cells were washed two times with phosphate buffer solution (PBS) to eliminate not internalized parasites. Fresh RPMI 1640 1 mL was added and cells were incubated during 24 h to guarantee multiplication of intracellular parasites.
After 24 h of infection, the culture medium was replaced by fresh culture medium containing each compound at concentrations of 20 μg/mL. After 72 h, the inhibition of the infection progress was determined. Cells were removed from the bottom plate with a trypsin/EDTA (250 mg) solution. Recovered cells were centrifuged at 1100 rpm during 10 min at 4 °C, the supernatant was discarded and cells were washed with 1 mL of cold PBS and centrifuged at 1100 rpm during 10 min at 4 °C. Supernatant was discarded and cells were suspended in 500 μL of PBS and analyzed by flow cytometry (FC 500MPL, Cytomics, Brea, CA, USA) counting 20.000 events. All determinations for each compound and standards were carried out in triplicate, in two isolated experiments. Activity of tested compounds was carried out in parallel with infection progress in culture medium alone and in culture medium with amphotericin B 0.05 μg/mL and meglumine antimoniate (10.0 μg/mL) as control drugs. […] The infected cells were exposed against each concentration of synthesized compounds during 72 h, then, cells were removed and tested by flow cytometry as described before.
Antileishmanial activity was determined according to percentage of infected cells and parasite load obtained for each experimental condition by the cytometer. Percentage of infected cells was determined as the number of positive events by double fluorescence (green for parasites and red for cells) using dotplot analysis. On the other hand, the parasitic load was determined by analysis of mean fluorescence intensity (MFI).
The parasitemia inhibition was calculated by Equation (2), where the MFI of control, corresponds to 100% of parasitemia. In turn, inhibition percentage corresponds to 100% Parasitemia.
The selectivity index (SI), was calculated by dividing the cytotoxic activity and the leishmanicidal activity using the following formula: SI = CL50/CE50.

The subject of series [2] is human promonocytic cell line U937. The series can be described thus: in vitro. The conditions noted are these: U-937 cells, MTT, 72 h, Lethal Concentration 50. On the procedure:
(§1) The cytotoxic activity of the compounds was assessed based on the viability of the human promonocytic cell line U937 (ATCC CRL-1593.2^TM) evaluated by the MTT (3-(4,5-dimethylthiazol-2-yl)-2,5-diphenyltetrazolium bromide) assay. In brief, cells were grown in 96-well cell-culture dishes at a concentration of 100,000 cells/mL in RPMI-1640 supplemented with 10% FBS and the corresponding concentrations of the compounds, starting at 200 µg/mL in duplicate. The cells were incubated at 37 °C with 5% CO2 for 72 h in the presence of the compounds, and then the effect was determined using the MTT assay, incubating at 37 °C for 3 h. The effect of the compounds was determined by measuring the activity of the mitochondrial dehydrogenase by adding 10 µL/well of MTT solution (0.5 mg/mL) and incubating at 37 °C for 3 h. The reaction was stopped by adding a 50% isopropanol solution with 10% sodium dodecyl sulfate for 30 min. Cell viability was determined based on the quantity of formazan produced, according to the optical density (O.D) obtained at 570 nm in a Bio-Rad (Hercules, CA, USA) ELISA instrument. Cultured cells in the absence of extracts were used as viability controls, while meglumine antimoniate and amphotericin B were used as cytotoxicity controls. Assays were performed twice with three replicates per each concentration tested.
(§2) Cytotoxicity was determined according to viability and mortality percentages obtained for each isolated experiment (compounds, amphotericin B, meglumine antimoniate and culture medium alone). The results were expressed as 50 lethal concentrations (LC50), that corresponds to the concentration necessary to eliminate 50% of cells, calculated by Probit analysis. Percentage of viability was calculated by Equation (1), where the optical density (O.D) of control, corresponds to 100% of viability. In turn, mortality percentage corresponds to 100% viability: % Viability = (O.D Exposed cells)/(O.D Control cells) × 100 (1)
(§3) The degree of toxicity was established according to the LC50 value using the following scale: highly toxic: LC50 < 50 μg/mL, toxic: LC50 > 50 to < 100 μg/mL; moderately toxic: LC50 > 100 to < 200 μg/mL and potentially non-toxic: LC50 > 200 μg/mL.

Series [3] concerns intracellular amastigotes of L. (V) panamensis. The series can be described thus: Leishmanicidal activity against intracellular amastigotes (GFP, flow cytometry, 72 h). The class given is cell-based, Leishmania (Viannia) panamensis. The conditions noted are these: for inhibition at 20 µg/mL: read-out: Leishmanicidal activity % Inhibition; for EC50: intracellular amastigotes in U-937 cells.

A further series is described as follows: in vitro. The conditions noted are these: human. On the procedure: as §1, §2, §3

“And” between values parts separate entries of the source, which are not always exact repeats. Equal values may be shown once. Read-outs that look alike come from different tables or passages of the source.

As for “3,4-dimethoxy-4'-hydroxychalcone [3,4-Dimethoxy-4'-hydroxychalcone (6), reference compound]”, the “Leishmanicidal activity % Inhibition” value in series [1] (at 20 µg/mL, 72 h) was determined as 52.4 ± 6.5%. Further, in series [1] (intracellular amastigotes in U-937 cells, 72 h), the “Leishmanicidal activity EC50” value stood at 20.03 ± 1.4 µg/mL. The EC50 (in general, the concentration at which the effect is half-maximal) in series [1] (intracellular amastigotes in U-937 cells, 72 h, read-out: Leishmanicidal activity EC50 (converted)) is 70.5 µM. Further, the “Cytotoxicity LC50” value in series [2] amounted to 13.9 ± 1.4 µg/mL. Also, in series [2] (read-out: Cytotoxicity LC50), the CC50 is 48.9 µM.

On to `Cc1cc(=O)oc2cc(O)ccc12` [7-Hydroxy-4-methylcoumarin (11), 7-hydroxy-4-methylcoumarin, reference compound], for which the inhibition (usually the share of the control response that was lost under treatment) at 20 µg/mL in series [3] (intracellular amastigotes) stood at 15.3 ± 0.1%.

Regarding `O=c1ccoc2cc(O)ccc12` [7-Hydroxychromone (20), 7-hydroxychromone, reference compound], the inhibition at 20 µg/mL in series [3] (intracellular amastigotes) was found to be 14.8 ± 0.9%.

For `C[C@@H]1[C@H](O)[C@@H](C)/C=C/C=C/C=C/C=C/C=C/C=C/C=C/[C@H](O[C@@H]2O[C@H](C)[C@@H](O)[C@H](N)[C@@H]2O)C[C@@H]2O[C@](O)(C[C@@H](O)C[C@@H](O)[C@H](O)CC[C@@H](O)C[C@@H](O)CC(=O)O[C@H]1C)C[C@H](O)[C@H]2C(=O)O` [Amphotericin B, reference compound], in “in vitro”, the CC50 at 72 h was 42.1 µg/mL and 45.6 µM. In series [3] (Dose employed: 0.05 µg/mL, intracellular amastigotes), this compound displayed an inhibition at 0.05 µg/mL of 69.1 ± 1.3%. The 50% effective concentration (EC50) in series [3] was 0.06 µg/mL and 100 nM.

In the case of `COc1ccc(/C=C/C(=O)c2ccc(OCCCOc3cc(Cl)ccc3Oc3ccc(Cl)cc3Cl)cc2)cc1OC` [Compound 7, (2E)-1-(4-{3-[5-Chloro-2-(2,4-dichlorophenoxy)phenoxy]propoxy}phenyl)-3-(3,4-dimethoxyphenyl) prop-2-en-1-one], the “SI (Selectivity Index = LC50/EC50)” value in series [1] is over 21.3. The CC50 at 72 h in “in vitro” is > 200 µg/mL and > 327 µM. Moreover, the inhibition at 20 µg/mL in series [3] (intracellular amastigotes) amounted to 67.4 ± 17.2%. Also, the concentration for a half-maximal effect (EC50) in series [3] is 9.4 µg/mL and 15.4 µM.

For the compound `COc1ccc(/C=C/C(=O)c2ccc(OCCCCOc3cc(Cl)ccc3Oc3ccc(Cl)cc3Cl)cc2)cc1OC` [Compound 8, (2E)-1-(4-{4-[5-Chloro-2-(2,4-dichlorophenoxy)phenoxy]butoxy}phenyl)-3-(3,4-dimethoxyphenyl) prop-2-en-1-one], the “SI (Selectivity Index = LC50/EC50)” value in series [1] is over 19.6. Moreover, the CC50 at 72 h in the series “in vitro” was > 200 µg/mL and > 319 µM. Besides, the inhibition at 20 µg/mL in series [3] (intracellular amastigotes) came out at 67.8 ± 19%. In addition, the 50% effective concentration (EC50) in series [3] was 10.2 µg/mL and 16.3 µM.

For the compound `COc1ccc(/C=C/C(=O)c2ccc(OCCCCCOc3cc(Cl)ccc3Oc3ccc(Cl)cc3Cl)cc2)cc1OC` [Compound 9, (2E)-1-[4-({5-[5-Chloro-2-(2,4-dichlorophenoxy)phenoxy]pentyl}oxy)phenyl]-3-(3,4-imethoxyphenyl) prop-2-en-1-one], the “SI (Selectivity Index = LC50/EC50)” value in series [1] is over 14.8. In addition, in the series “in vitro”, the CC50 at 72 h was > 200 µg/mL and > 311 µM. Besides, the inhibition at 20 µg/mL in series [3] (intracellular amastigotes) is 69.5 ± 8.6%. Further, in series [3], the EC50 is 13.5 µg/mL and 21.1 µM.

In the case of `COc1ccc(/C=C/C(=O)c2ccc(OCCCCCCCCOc3cc(Cl)ccc3Oc3ccc(Cl)cc3Cl)cc2)cc1OC` [Compound 10, (2E)-1-[4-({8-[5-Chloro-2-(2,4-dichlorophenoxy)phenoxy]octyl}oxy)phenyl]-3-(3,4-dimethoxyphenyl) prop-2-en-1-one], in “in vitro”, the CC50 at 72 h is > 200 µg/mL and > 293 µM.

`Cc1cc(=O)oc2cc(OCCCOc3cc(Cl)ccc3Oc3ccc(Cl)cc3Cl)ccc12` [Compound 16, 7-{3-[5-Chloro-2-(2,4-dichlorophenoxy)phenoxy]propoxy}-4-methyl-2H-chromen-2-one]: in series [1] (at 20 µg/mL, 72 h), the “Leishmanicidal activity % Inhibition” value is recorded as 34.0 ± 0.3%. In addition, the CC50 at 72 h in the series “in vitro” was > 200 µg/mL and > 397 µM. Moreover, the inhibition at 20 µg/mL in series [3] (intracellular amastigotes) is under 50%.

Consider `Cc1cc(=O)oc2cc(OCCCCOc3cc(Cl)ccc3Oc3ccc(Cl)cc3Cl)ccc12` [Compound 17, 7-{4-[5-Chloro-2-(2,4-dichlorophenoxy)phenoxy]butoxy}-4-methyl-2H-chromen-2-one], for which the “SI (Selectivity Index = LC50/EC50)” value in series [1] is given as over 7.3. Besides, the CC50 at 72 h in the series “in vitro” was > 200 µg/mL and > 386 µM. Besides, the inhibition at 20 µg/mL in series [3] (intracellular amastigotes) was 57.1 ± 11.5%. For the same compound, the concentration for a half-maximal effect (EC50) in series [3] was 27.5 µg/mL and 53.1 µM.

For `Cc1cc(=O)oc2cc(OCCCCCOc3cc(Cl)ccc3Oc3ccc(Cl)cc3Cl)ccc12` [Compound 18, 7-({5-[5-Chloro-2-(2,4-dichlorophenoxy)phenoxy]pentyl}oxy)-4-methyl-2H-chromen-2-one], in the series “in vitro”, the CC50 at 72 h was > 200 µg/mL and > 376 µM.

Consider `Cc1cc(=O)oc2cc(OCCCCCCCCOc3cc(Cl)ccc3Oc3ccc(Cl)cc3Cl)ccc12` [Compound 19, 7-({8-[5-Chloro-2-(2,4-dichlorophenoxy)phenoxy]octyl}oxy)-4-methyl-2H-chromen-2-one], for which the CC50 at 72 h in “in vitro” was > 200 µg/mL and > 348 µM.

Turning to `O=c1ccoc2cc(OCCCOc3cc(Cl)ccc3Oc3ccc(Cl)cc3Cl)ccc12` [Compound 25, 7-{3-[5-Chloro-2-(2,4-dichlorophenoxy)phenoxy]propoxy}-4H-chromen-4-one], in series [1], the “SI (Selectivity Index = LC50/EC50)” value is 2.4. Besides, in “in vitro”, the CC50 at 72 h was 6.4 µg/mL and 13.1 µM. Besides, in series [3] (intracellular amastigotes), the inhibition at 20 µg/mL was 94.4 ± 2.9%. Also, the EC50 in series [3] is 2.7 µg/mL and 5.5 µM.

Regarding `O=c1ccoc2cc(OCCCCOc3cc(Cl)ccc3Oc3ccc(Cl)cc3Cl)ccc12` [Compound 26, 7-{4-[5-Chloro-2-(2,4-dichlorophenoxy)phenoxy]butoxy}-4H-chromen-4-one], the “SI (Selectivity Index = LC50/EC50)” value in series [1] is given as 2.1. Further, in the series “in vitro”, the CC50 at 72 h is 15.8 µg/mL and 31.3 µM. Moreover, in series [3] (intracellular amastigotes), the inhibition at 20 µg/mL is 91 ± 9.6%. For the same compound, in series [3], the 50% effective concentration (EC50) was 7.5 µg/mL and 14.9 µM.

`O=c1ccoc2cc(OCCCCCOc3cc(Cl)ccc3Oc3ccc(Cl)cc3Cl)ccc12` [Compound 27, 7-({5-[5-Chloro-2-(2,4-dichlorophenoxy)phenoxy]pentyl}oxy)-4H-chromen-4-one]: the “SI (Selectivity Index = LC50/EC50)” value in series [1] was determined as 1.6. In the series “in vitro”, the CC50 at 72 h is 25.8 µg/mL and 49.8 µM. For the same compound, in series [3] (intracellular amastigotes), the inhibition at 20 µg/mL is 75.5 ± 1.5%. Also, the half-maximal effective concentration (EC50) in series [3] was 16 µg/mL and 30.9 µM.

Turning to `O=c1ccoc2cc(OCCCCCCCCOc3cc(Cl)ccc3Oc3ccc(Cl)cc3Cl)ccc12` [Compound 28, 7-({8-[5-Chloro-2-(2,4-dichlorophenoxy)phenoxy]octyl}oxy)-4H-chromen-4-one], the CC50 at 72 h in the series “in vitro” is 80 µg/mL and 143 µM. In addition, the inhibition at 20 µg/mL in series [3] (intracellular amastigotes) stood at 28.4 ± 2.1%.

Turning to “meglumine antimoniate [Sb(V), reference compound]”, the “Leishmanicidal activity % Inhibition” value in series [1] (Dose employed: 10 µg/mL, 72 h) was 79.4 ± 2.1 ^h %. Further, in series [2], the “Cytotoxicity LC50” value was 495.9 ± 55.6 µg/mL.
